Where “and” joins values, the source holds several entries; their conditions need not be identical. Identical values can stand only once. After the bases stand the sugars from the 5' end (letter, count) and the backbone: PS all phosphorothioate, else s phosphorothioate and o phosphodiester by linkage. Methylation of C is not given here. e = 2'-O-(2-methoxyethyl) (MOE); k = constrained ethyl (cEt); d = 2'-deoxy (DNA)

The data set deals with KRAS. Conditions: ASO.

For the setting “A431, 5 µM”, AGTCTATTTCAGGCGG (sugars k3 d10 k3, PS) returned a target mRNA inhibition of 50%.
Consider AGTGTGACTCAGTTAA (sugars k3 d10 k3, PS), for which, under “A431, 2 µM”, the target mRNA inhibition amounted to 53%.
Where the note is “A431, 2 µM”, “AGTGTGACTCAGTTAA (sugars kkdddddddddkekek, PS)” registered a target mRNA inhibition of 48%.
The sequence ATCTTGTTGAGCTATC (sugars k3 d10 k3, PS) registered a target mRNA inhibition (A431, 2 µM) of 40%.
Under “A431, 2 µM”, ATGCTAATAATTTAGT (sugars k3 d10 k3, PS) gave a target mRNA inhibition of 11%.
As to ATGCTGTGAAACTCTC (sugars k3 d10 k3, PS), the target mRNA inhibition by setting is: (A431, 0.185 µM) 26%; (A431, 0.556 µM) 42%; (A431, 1.667 µM) 47%; (A431, 2 µM) 58% and 52% and 39%; (A431, 5 µM) 72%.
Where the note is “A431, 2 µM”, “ATGCTGTGAAACTCTC (sugars kkdddddddddkekek, PS)” gave a target mRNA inhibition of 16%.
With ATGGTGAATATCTTCA (sugars k3 d10 k3, PS), the target mRNA inhibition reads like this: (A431, 1.667 µM) 45% and 31%; (A431, 2 µM) 64%; (A431, 5 µM) 70% and 65%.
In the case of ATGGTGTAACATAGGT (sugars k3 d10 k3, PS), the target mRNA inhibition (A431, 0.185 µM) amounted to 17%; the target mRNA inhibition (A431, 0.556 µM) turned out to be 36%; the target mRNA inhibition (A431, 1.667 µM) worked out at 59%; the target mRNA inhibition (A431, 2 µM) is 59% and 47% and 52%; the target mRNA inhibition (A431, 5 µM) was 75%.
Sequence “ATGGTGTAACATAGGT (sugars kddddddddddkekek, PS)” came in with a target mRNA inhibition (A431, 2 µM) of 47%.
Sequence “ATGGTGTAACATAGGT (sugars kkddddddddkekekk, PS)” showed a target mRNA inhibition (A431, 2 µM) of 40%.
The sequence “ATGGTGTAACATAGGT (sugars kkkddddddddkekek, PS)” came in with a target mRNA inhibition (A431, 2 µM) of 43%.
On the same count and under the same terms, the same measure for ATGTAGGGCATTTCTG (sugars k3 d10 k3, PS): 9%.
In the case of ATTAGGAGTCTTTATA (sugars k3 d10 k3, PS), the target mRNA inhibition (A431, 2 µM) turned out to be 20%.
Under “A431, 2 µM”, ATTAGTCTCCATTAGT (sugars k3 d10 k3, PS) gave a target mRNA inhibition of 29%.
Turning to ATTCAAAGTTCACATA (sugars k3 d10 k3, PS), for the setting “A431, 2 µM”, the target mRNA inhibition was found to be 0%.
On the same count and under the same terms, as for ATTGTGCAATGGTGAC (sugars k3 d10 k3, PS), the figure is 57%; as for CAACTGCATGCACCAA (sugars k3 d10 k3, PS), 31%; as for CACTTGTACTAGTATG (sugars k3 d10 k3, PS), 36%.
Consider CAGATTGTGCTGAGCT (sugars k3 d10 k3, PS), for which the target mRNA inhibition (A431, 2 µM) is 29%.
In turn, “CAGTGTGACTCAGTTA (sugars kddddddddddkekek, PS)” showed a target mRNA inhibition (A431, 2 µM) of 32%.
Consider “CAGTGTGACTCAGTTA (sugars kdddddddddkekeke, PS)”, for which the target mRNA inhibition (A431, 2 µM) came out at 54%.
In turn, “CAGTGTGACTCAGTTA (sugars kkdddddddddkekek, PS)” had a target mRNA inhibition (A431, 2 µM) of 56%.
Regarding “CAGTGTGACTCAGTTA (sugars kkkdddddddddkeke, PS)”, the target mRNA inhibition (A431, 2 µM) was found to be 55%.
Take “CAGTGTGACTCAGTTA (sugars kkkddddddddkdkdk, PS)”: the target mRNA inhibition (A431, 0.185 µM) is 10%; the target mRNA inhibition (A431, 0.556 µM) came out at 24%; the target mRNA inhibition (A431, 1.667 µM) stood at 45%; the target mRNA inhibition (A431, 2 µM) was 60% and 50%; the target mRNA inhibition (A431, 5 µM) came out at 66%.
“CAGTGTGACTCAGTTA (sugars kkkddddddddkekek, PS)” came in with a target mRNA inhibition (A431, 0.185 µM) of 28%; a target mRNA inhibition (A431, 0.556 µM) of 24%; a target mRNA inhibition (A431, 1.667 µM) of 46%; a target mRNA inhibition (A431, 2 µM) of 63%; a target mRNA inhibition (A431, 5 µM) of 71%.
Take “CAGTGTTAAGAGAACT (sugars kddddddddddkekek, PS)”: the target mRNA inhibition (A431, 2 µM) came to 23%.
The same measure, in the same setting: as for CATTACTTTTTGACAA (sugars k3 d10 k3, PS), the figure is 8%.
The sequence CATTCAAAGTTCACAT (sugars k3 d10 k3, PS) displayed a target mRNA inhibition (A431, 2 µM) of 2%.
Same read-out and setting: the same measure for “CATTCAAAGTTCACAT (sugars kddddddddddkekek, PS)”: 43%.
Under “A431, 2 µM”, “CATTTATGTGACTAGA (sugars kdddddddddkekeke, PS)” yielded a target mRNA inhibition of 24%.
CCAGTGATACTTTCAC (sugars k3 d10 k3, PS) yielded a target mRNA inhibition (A431, 2 µM) of 15%.
Regarding “CCAGTGATACTTTCAC (sugars kdddddddddkekeke, PS)”, the target mRNA inhibition (A431, 2 µM) came to 16%.
“CCAGTGTTAAGAGAAC (sugars k3 d9 k3 e1, PS)” registered a target mRNA inhibition (A431, 2 µM) of 55%.
On to CCAGTGTTAAGAGAAC (sugars k3 d10 k3, PS), for which the target mRNA inhibition (A431, 2 µM) was found to be 33%.
The sequence “CCAGTGTTAAGAGAAC (sugars kkdddddddddkdkdk, PS)” had a target mRNA inhibition (A431, 2 µM) of 38%.
In turn, “CCAGTGTTAAGAGAAC (sugars kkdddddddddkekek, PS)” showed a target mRNA inhibition (A431, 2 µM) of 43%.
With “CCATTCAAAGTTCACA (sugars kkddddddddddkeke, PS)”, the target mRNA inhibition (A431, 0.185 µM) is 19%; the target mRNA inhibition (A431, 0.556 µM) is 32%; the target mRNA inhibition (A431, 1.667 µM) was 50%; the target mRNA inhibition (A431, 2 µM) was found to be 63%; the target mRNA inhibition (A431, 5 µM) is 67%; the target mRNA inhibition (NCI-H460, 0.037 µM) is 54.7%.
“CCATTCAAAGTTCACA (sugars kkdddddddddkekek, PS)” displayed a target mRNA inhibition (A431, 2 µM) of 36%.
On the same count and under the same terms, the same measure for “CCATTTATGTGACTAG (sugars kkdddddddddkdkdk, PS)”: 43%.
“CCATTTATGTGACTAG (sugars kkdddddddddkekek, PS)” returned a target mRNA inhibition (A431, 2 µM) of 25%.
CGAGAATGGATATTCA (sugars k3 d10 k3, PS) displayed a target mRNA inhibition (A431, 2 µM) of 14%.
Still for that read-out and setting: as for CTAAAACAAATGCTAA (sugars k3 d10 k3, PS), the figure is 15%; as for CTGTAGTTTCACATAG (sugars k3 d10 k3, PS), 25%.
Consider CTGTCTATTCATACCA (sugars k3 d10 k3, PS), for which the target mRNA inhibition (A431, 2 µM) worked out at 34%.
On the same count and under the same terms, as for CTGTGAAACTCTCTAT (sugars k3 d10 k3, PS), the figure is 29%; as for CTTACAAATCTGAATT (sugars k3 d10 k3, PS), 7%.
As to CTTCATTGTTTAAAAA (sugars k3 d10 k3, PS), where the note is “A431, 2 µM”, the target mRNA inhibition amounted to 11%.
“CTTGATTTGTCAGCAG (sugars k3 d9 k3 e1, PS)” registered a target mRNA inhibition (A431, 2 µM) of 46%.
Same read-out and setting: as for “CTTGATTTGTCAGCAG (sugars kkkddddddddkekek, PS)”, the figure is 41%.
Turning to CTTGTACTAGTATGCC (sugars k3 d10 k3, PS), the target mRNA inhibition is 24% and 13% (A431, 0.185 µM); 46% and 35% (A431, 0.556 µM); 67% and 52% (A431, 1.667 µM); 59% (A431, 2 µM); 77% and 71% (A431, 5 µM).
Turning to CTTGTTGAGCTATCCA (sugars k3 d10 k3, PS), the target mRNA inhibition (A431, 2 µM) stood at 63%.
Take GACTTGAAAAGTGTTT (sugars k3 d10 k3, PS): the target mRNA inhibition (A431, 2 µM) worked out at 14%.
For the setting “A431, 2 µM”, GAGATATCCACAGCAG (sugars k3 d10 k3, PS) yielded a target mRNA inhibition of 49%.
For the sequence “GAGTCTTTATAGTAAT (sugars kkddddddddkekekk, PS)”, the target mRNA inhibition (A431, 2 µM) came out at 0%.
The sequence GATATCCACAGCAGCA (sugars k3 d10 k3, PS) registered a target mRNA inhibition (A431, 2 µM) of 10%.
Sequence GATGTAGGGCATTTCT (sugars k3 d10 k3, PS) came in with a target mRNA inhibition (A431, 2 µM) of 0%.
Regarding “GATTGTGCTGAGCTTG (sugars kkdddddddddkdkdk, PS)”, the target mRNA inhibition by setting is: (A431, 0.185 µM) 0%; (A431, 0.556 µM) 17%; (A431, 1.667 µM) 48%; (A431, 2 µM) 57%; (A431, 5 µM) 58%.
Turning to GCATGAAGATTTCTGG (sugars k3 d10 k3, PS), the target mRNA inhibition (A431, 2 µM) is 62% and 66% and 60%.
GCATGTAAATATAGCC (sugars k3 d10 k3, PS): where the note is “A431, 2 µM”, the target mRNA inhibition came out at 11%.
In the case of GCATTTCTGATGTGAC (sugars k3 d10 k3, PS), the target mRNA inhibition (A431, 2 µM) was 24%.
Consider GCTATTAGGAGTCTTT (sugars k3 d10 k3, PS), for which the target mRNA inhibition reads like this: (A431, 0.125 µM) 68% and 67%; (A431, 0.185 µM) 33% and 16% and 26%; (A431, 0.556 µM) 50% and 47% and 44%; (A431, 1.667 µM) 77% and 67% and 58%; (NCI-H460, 0.037 µM) 69.9%.
“GCTGTGAAACTCTCTA (sugars kdddddddddkekeke, PS)” registered a target mRNA inhibition (A431, 2 µM) of 2%.
Where the note is “A431, 2 µM”, GGAGATATCCACAGCA (sugars k3 d10 k3, PS) returned a target mRNA inhibition of 0%.
With “GGAGTCTTTATAGTAA (sugars k3 d9 k3 e1, PS)”, the target mRNA inhibition (A431, 2 µM) amounted to 41%.
Same read-out and setting: as for GGAGTCTTTATAGTAA (sugars k3 d10 k3, PS), the figure is 38%; as for “GGAGTCTTTATAGTAA (sugars kkdddddddddkdkdk, PS)”, 29%; as for “GGAGTCTTTATAGTAA (sugars kkdddddddddkekek, PS)”, 21%.
GGCATTTCTGATGTGA (sugars k3 d10 k3, PS) yielded a target mRNA inhibition (A431, 2 µM) of 8%.
In the case of GGGCATTTCTGATGTG (sugars k3 d10 k3, PS), the target mRNA inhibition (A431, 2 µM) came to 7%.
As for “GGTGTAACATAGGTTA (sugars kkddddddddkekekk, PS)”, the target mRNA inhibition runs as follows: (A431, 0.185 µM) 0%; (A431, 0.556 µM) 2%; (A431, 1.667 µM) 40%; (A431, 2 µM) 54%; (A431, 5 µM) 58%.
Turning to GTAAATATAGCCCCAA (sugars k3 d10 k3, PS), the target mRNA inhibition (A431, 2 µM) amounted to 29%.
As to GTACTAGTATGCCTTA (sugars k3 d10 k3, PS), for the setting “A431, 2 µM”, the target mRNA inhibition was found to be 50%.
On to GTAGTTTCACATAGCA (sugars k3 d10 k3, PS), for which, under “A431, 2 µM”, the target mRNA inhibition turned out to be 46%.
GTATTAACACAGAAGT (sugars k3 d10 k3, PS): the target mRNA inhibition (A431, 2 µM) stood at 0%.
In the case of “GTCCAGTGATACTTTC (sugars kkddddddddddkeke, PS)”, the target mRNA inhibition (A431, 2 µM) came to 39%.
Sequence GTGAAACTCTCTATGA (sugars k3 d10 k3, PS) had a target mRNA inhibition (A431, 2 µM) of 28%.
